Data taken from patent US9497963B2, “Methods and compositions for control of gypsy moth, Lymantria dispar” (Simon Fraser University, priority 2008, dated 2016).

Key:
[1] = tested on: male gypsy moth antenna response to odorants other than (+)-1; test: Long-term inhibition of responses to other pheromone and host plant odorants, EAG (Example 8, first objective); set-up: species or system Lymantria dispar; settings: antagonist 100 μg
Description: To determine whether the long-term inhibitory effects of 3c{2,3} and DEET are specific to (+)-1 or also apply to other odorants, compound 3c{2,3} and DEET were tested further with other odorants: (−)-1, racemic 1, dispar alkene, methyl eugenol and 1-hexanol.
These included (−)-1, racemic 1, dispar alkene (the alkene corresponding to the carbon framework of 1), methyl eugenol (a characteristic oak wood odorant) and 1-hexanol (a green leaf volatile, shown previously to be detected by gypsy moth antennae). For the pure odorant puffs, (−)-1 and racemic 1 were administered at 100 ng/cartridge, the alkene, methyl eugenol was administered at 1 μg/cartridge and 1-hexanol was administered at 100 μg/cartridge. The antagonists were both administered at 100 μg/cartridge, mixed with the appropriate dose of the odorant. The puff order was: i) air, ii) pure odorant, iii) odorant+antagonist, iv) pure odorant. All puffs were corrected for the air response as in Eq. 1. STI values were obtained from the depolarization […]. LTI values were obtained by comparing the depolarization of puff iv relative to that of puff ii.

gypsy moths = test: Field test of trap catches, Northern Japan 2009 (Example 12); format: in vivo, Lymantria dispar; settings: (+)-dis 40 μg/lure & compound 40 mg/lure, vs (+)-dis alone
Description: Ten traps were used per treatment. The solvent used to deliver the compounds onto the lures was doubly distilled hexane. The hexane was evaporated prior to packing and shipping the lures. The field test was conducted in 10 replicates in Northern Japan. The test was conducted Aug. 16-18, 2009, in an area where gypsy moths are known to live. […] Traps were arranged randomized, placed on platforms. The experiment was conducted blind. The lures contained 40 μg disparlure/lure, a low dose for a field trial (typically 100 μg-1 mg are used). For each treatment, 10 traps were deployed.

[2] = tested on: male gypsy moth antennae response to pheromone (+)-1 with plant odors; test: Effect on mixed pheromone/plant odorant stimulus, EAG (Example 8, second objective); set-up: species or system Lymantria dispar
Description: A second objective for this experiment was to determine whether the oak volatiles, methyl eugenol and 1-hexanol, can enhance the antennal response to (+)-1 and whether the mixed pheromone/plant odorant stimulus can be inhibited by compound 3c{2,3} or DEET. The puff order was: i) air, ii) pure (+)-1 (100 ng), iii) (+)-1 (100 ng) and plant odorant (1 μg for methyl eugenol and 100 μg for 1-hexanol), iv) (+)-1 and plant odorant as in iii+antagonist (100 μg), v) same as in iii. Depolarizations were corrected for the air response as in Eq. 1 and the short-term effects were calculated for puff iii relative to puff ii, and for puff iv relative to puff ii. Long-term effects were calculated for puff v relative to puff iii (for LTI of the mixed pheromone/plant odorant plume) and for puff v relative to puff ii (to determine whether long-term effects of the plant odorant and of the antagonist cancel).

[3] = tested on: response of L. dispar antennae to (+)-disparlure; test: Competitive electroantennogram (EAG) screen, inhibition of response to (+)-disparlure (Example 4); set-up: species or system Lymantria dispar; settings: for inhibition at 0.001 mg / inhibition at 0.01 mg / inhibition at 0.1 mg: Lymantria dispar, means ± S.E.; for inhibition at 0.001 mg: dose 1 μg on cartridge; for inhibition at 0.01 mg: dose 10 μg on cartridge; for inhibition at 0.1 mg: dose 100 μg on cartridge
Description: In this assay, libraries and individual compounds are tested for their ability to inhibit the antennal response to the sex attractant pheromone of the gypsy moth, (7R,8S) 2-methyl-7,8-epoxyoctadecane, also known as (+)-disparlure. The controls consisted of a puff of clean air (negative) or of air passed over a cartridge impregnated with (+)-disparlure (100 ng) (positive). The treatments consisted of 100 ng of (+)-disparlure in combination with a compound or library at 1, 10 or 100 μg, on a cartridge over which the air puff was passed. The small arrows above the trace denote the times where the air was puffed over the antenna.
For some compounds, such as the para Compounds 2c{n}, 2c{n,n} and libraries 3c{n,1-5}, EAG competitive assays were performed to investigate whether the diethers inhibit the response of L. dispar antennae to the main component of the sex attractant pheromone cis-(7R,8S)-epoxy-2-methyloctadecane [(+)-disparlure] (FIG. 4). For EAGs a male moth antenna was mounted and placed in front of a stimulus-delivery glass tubing (160×5 mm ID) with a side orifice (2 mm diam) near (2 cm) the distal opening. The tubing was connected to one port of an apparatus (Stimulus Controller CS-05, Syntech Research and Equipment, NL-1200BM Hilversum, The Netherlands) that generated a constant stream of clean air (300 ml/min). The second port of the apparatus was connected to a Pasteur pipette inserted through the side orifice of the stimulus-delivery tubing. The test stimulus was applied to a disc of Whatman #1 filter paper inside the Pasteur pipette and was discharged through a 0.3-sec pulse of air (600 ml/min) Receptor potentials of the antennae in response to test stimuli were recorded with a Syntech IDAC probe, amplifier and interfaced board, and were analyzed with EAG Syntech Software Version 2.4 (1996) Inhibition (%) was calculated as: % inhibition=(Dd−Ds)/Dd×100 (eq. 1)
Where Dd is the depolarization observed with pure disparlure (corrected for clean air background) and Ds is the depolarization with disparlure+sample. See FIG. 4 for a representative EAG inhibition assay trace.

male gypsy moth antenna [4] = test: EAG effects of 3c{1,3} with (+)-disparlure at different ratios (Example 14); set-up: species or system Lymantria dispar; settings: for STI (short-term inhibition): mixture relative to first puff of pure (+)-disparlure
From the text: The compound has the following effects in the EAG at the following ratios: […]

moths = test: Simple behavioural tests (films of moths exposed to puffs); format: in vivo, Lymantria dispar; settings: (+)-disparlure:compound 1:1000 vs pheromone alone
male gypsy moth antenna [5] = test: EAG dose response and ratio tests of (+)-disparlure:3c{1,3} (Example 16); set-up: species or system Lymantria dispar; settings: (+)-disparlure:compound ratios about 1:300 to about 1:2000 or greater
Description: Dose response and ratio tests were done at each of the following (+)-disparlure concentrations: 1 ng, 10 ng, 50 ng, 100 ng, 500 ng and 1000 ng, the following ratios of (+)-disparlure:3c{1,3} were tested: 1:100, 1:300, 1:500, 1:700, 1:1000, 1:1500 and 1:2000 (FIG. 19).

gypsy moth sensillum = test: Single sensillum recordings; set-up: species or system Lymantria dispar; settings: (+)-disparlure and compound mixed 1:1000
[6] = odorant racemic disparlure 100 ng
[7] = plant synergist 1-hexanol 100 μg
[8] = plant synergist methyl eugenol 1 μg

## CCCOc1ccc(OCC)cc1 [3c{2,3}, 1-ethoxy-4-propoxy benzene]
[1]; odorant 1-hexanol 100 μg
  long-term activity (%): 29 ± 18%
  short-term activity (%): −34 ± 28%
[1]; odorant (−)-disparlure 100 ng
  long-term activity (%): 43 ± 12%
[1]; odorant dispar alkene 1 μg
  long-term activity (%): 39 ± 12%
  short-term activity (%): −244 ± 15%
[1]; odorant methyl eugenol 1 μg
  long-term activity (%): 46 ± 24%
[1]; [6]
  long-term activity (%): 69 ± 5%
  short-term activity (%): −154 ± 45%
Gypsy moths
  trap catches in the field: enhanced the trap catches significantly
[2]; (+)-1 100 ng + 1-hexanol 100 μg + antagonist 100 μg
  short-term effect with plant synergist + antagonist: −99 ± 60 (5)
[2]; (+)-1 100 ng + methyl eugenol 1 μg + antagonist 100 μg
  short-term effect with plant synergist + antagonist: −125 ± 95 (4)
[2]; [7]
  long-term effect on (+)-1 response: 20 ± 18 (5)
  long-term effect on the mixed (+)-1/plant odor plumes: 5 ± 24 (5)
[2]; [8]
  long-term effect on (+)-1 response: 12 ± 33 (4)
  long-term effect on the mixed (+)-1/plant odor plumes: 11 ± 47 (4)

## CC(C)CCOc1ccc(OCCC(C)C)cc1 [3c{5,5}, 1,4-Di-(3-methyl-butyloxy) benzene]
[3]
  inhibitory activity on antennal pheromone responses (in words): moderate inhibitory activity
  inhibition at 0.001 mg: 63 ± 12%
  inhibition at 0.01 mg: 38 ± 22%
  inhibition at 0.1 mg: 64 ± 11%

## CCCOc1ccc(OCCC)cc1 [3c{3,3}, 1,4-Dipropoxy benzene]
[3]
  inhibitory activity on antennal pheromone responses (in words): moderate inhibitory activity
  inhibition at 0.001 mg: 5 ± 16%
  inhibition at 0.01 mg: 55 ± 7%
  inhibition at 0.1 mg: -3 ± 15%

## CCOc1ccc(OCC)cc1 [3c{2,2}, 1,4-Diethoxy benzene]
[3]
  inhibition at 0.001 mg: 4 ± 13%
  inhibition at 0.01 mg: 45 ± 6%
  inhibition at 0.1 mg: -3 ± 13%

## CCCOc1ccc(OC)cc1 [3c{1,3}, 1-methoxy-4-propoxy-benzene]
Male gypsy moth antenna [4]; 100 ng (+)-disparlure + 1 μg 3c{1,3}, ratio 1:10 by mass
  STI (short-term inhibition): 28 ± 16 (6)
Male gypsy moth antenna [4]; 100 ng (+)-disparlure + 10 μg 3c{1,3}, ratio 1:100 by mass
  STI (short-term inhibition): −2 ± 5 (6)
Male gypsy moth antenna [4]; 100 ng (+)-disparlure + 100 μg 3c{1,3}, ratio 1:1000 by mass
  STI (short-term inhibition): 48 ± 14 (6)
Male gypsy moth antenna [4]; (+)-disparlure puff immediately after last mixed puff (1:1000 ratio), relative to first (+)-disparlure reference puff
  LTI (long-term inhibition): 39 ± 12 (6)
moths
  behaviour of moths exposed to puffs: excited and violently flap their wings much longer
Male gypsy moth antenna [5]
  EAG depolarization shape (in words): increasingly broad depolarizations
Gypsy moths
  trap catches in the field: enhanced the trap catches significantly
Gypsy moth sensillum
  enhancement of neuronal activity: significant

## COc1ccc(OC)cc1 [3c{1,1}, 1,4-Dimethoxy benzene]
[3]
  inhibition at 0.001 mg: 4 ± 6%
  inhibition at 0.01 mg: -8 ± 9%
  inhibition at 0.1 mg: 38 ± 7%
